These results are taken from patent US8598124B2, “Peptides derived from HMG-CoA reductase and cosmetic and/or pharmaceutical composition containing same” (ISP Investments Inc., priority 2008, dated 2013).

What all share (type): cell-based
In experiment [1] the test system is normal human dermal fibroblasts. The experiment can be described thus: Ultrastructural study of caveolae in human fibroblasts. To be noted: 0.5 ppm (1% of stock solution at 50 ppm), 48 hours. On the procedure:
The goal of this study is to study at the ultrastructural level the caveolae in human dermal fibroblasts.
Protocol: Normal human dermal fibroblasts in culture are treated with a 1% stock solution at 50 ppm of peptide SEQ ID No. 4 for 48 hours (the medium in the presence of the active ingredient is changed every 24 hours).

Experiment [2] deals with HMG-CoA reductase. Nature of the experiment: Expression of HMG-CoA reductase in normal human keratinocytes (immunofluorescence). As to conditions: 0.5 ppm, 48 hours. The method, then:
The goal of this study is to determine the influence of peptide SEQ ID No. 4 on the expression of HMG-CoA reductase in normal human keratinocytes.
Protocol: Normal human dermal keratinocytes in culture are treated with a 1% stock solution at 50 ppm of peptide SEQ ID No. 4 for 48 hours (the medium in the presence of the active ingredient is changed every 24 hours). The cells are then washed and fixed in cold methanol for 4 minutes at 4° C. The cells are incubated in the presence of a polyclonal rabbit antibody specific for HMG-CoA reductase (Millipore, Upstate), and then a secondary antibody coupled with a fluorescent dye. The cells are then examined by epifluorescence microscope (Nikon Eclipse E600 microscope).

The test system of experiment [3] is normal human keratinocytes. Nature of the experiment: Ultrastructural study of lamellar bodies in human keratinocytes (transmission electron microscopy). As to conditions: 48 hours. The method, then:
The goal of this study is to study in an ultrastructural manner, in transmission electron microscopy, keratinocytes treated by peptide SEQ ID No. 5 at 0.5 ppm.
Normal human keratinocytes in culture are treated with a 1% stock solution at 50 ppm of peptide SEQ ID No. 5 for 48 hours (the medium in the presence of the active ingredient is changed every 24 hours). The cells are washed in PBS, and then are fixed by Karnosky hypertonic fixation (4% paraformaldehyde, 5% glutaraldehyde in a 0.08M phosphate buffer) 1 hour at ambient temperature and then 24 hours at 4° C. The cells are detached from the support by scraping and centrifuged 5 minutes at 1000 rpm. The supernatant is eliminated and a 1M sodium cacodylate buffer is deposited on the residue. The cells are mixed with 2% agar and then postfixed by osmium tetraoxide for 1 hour. The specimens are then dehydrated by successive passages in a series of alcohol (from 50 to 100%). The cells are then coated in a resin. The polymerization is carried out for approximately 12 hours at 60° C. Semi-thin sections of 0.5 μm are made with an ultramicrotome. The sections are deposited on a heat bonded slide and then colored with toluidine blue. The slides are then dehydrated again and mounted in a suitable medium. […]

The subject of experiment [4] is normal human keratinocytes. The experiment can be described thus: Differentiation study of human keratinocytes (pankeratin immunofluorescence). As to conditions: 0.5 ppm, 48 hours, anti-cytopankeratin antibody, epifluorescence microscope. On the procedure:
The goal of this study is to determine the influence of peptide SEQ ID No. 5 on epidermal differentiation.
Protocol: Normal human keratinocytes in culture are treated with a 1% stock solution at 50 ppm of peptide SEQ ID No. 4 for 48 hours (the medium in the presence of the active ingredient is changed every 24 hours). The cells are then washed and fixed with cold methanol for 4 minutes at 4° C.

Experiment [5] deals with normal human keratinocytes. The experiment can be described thus: Protective effect on skin cells subjected to UVB radiation (MTT cellular viability). To be noted: 0.5 ppm, 24 hours before and 24 hours after UVB 50 mJ/cm^2, versus untreated irradiated control. The method, then: The goal of this study is to determine the protective effect of peptide SEQ ID No. 5 with relation to normal human keratinocytes subjected to stress by UVB radiation. To do this, cellular viability tests were conducted by the MTT technique.
Protocol: The normal human keratinocytes are treated with a 1% solution, a solution at 50 ppm of peptide SEQ ID No. 5, for 24 hours, irradiated by UVB (50 mJ/cm^2) and then cultivated again 24 hours in the presence of the same concentration of peptide SEQ ID No. 5. Untreated and irradiated controls are carried out under the same conditions. At the end of the experiment, the cells are incubated in a solution containing 0.1 mg/ml of MTT (3-[4,5-dimethylthiazol-2-yl]-2,5-diphenyltetrazolium bromide). This compound is absorbed by the living cells and then metabolized by mitochondrial enzymes into a blue violet compound, formazan, that will be assayed by spectrophotometry at 540 nm. The optical density (O.D.) Is then directly proportional to the mitochondrial enzymatic activity as well as to the number of living cells.

In experiment [6] the test system is HMG-CoA reductase. The experiment can be described thus: Expression of HMG-CoA reductase in skin biopsies (immunolabelling). To be noted: 0.5 ppm applied topically on human skin samples in culture, 24 hours or 48 hours. The method, then: The goal of this study is to determine the influence of peptide SEQ ID No. 5 on the expression of HMG-CoA reductase.
Protocol: Samples of human skin are placed in culture at the air/liquid interface. A 1% stock solution at 50 ppm of peptide SEQ ID No. 5 is applied topically and then the samples are incubated for 24 hours or 48 hours.
These skin samples are then fixed with formaldehyde and then enclosed in paraffin. Sections of 2 to 3 μm are then made. Immunolabelling is carried out after unmasking the specific sites by microwave treatment and then incubation in trypsin. Immunolabelling is carried out by using a polyclonal rabbit antibody specific for HMG-CoA reductase (Millipore, Upstate), and then a secondary antibody, coupled with a fluorescent dye. The skin sections are then examined by epifluorescence microscope (Nikon Eclipse E600 microscope).

Where no end group is shown, it is not given here.

On to “Arg-Gly-Lys-Ser (RGKS) [Peptide SEQ ID No. 4]”, for which the “caveolae in treated cells in comparison with untreated control cells” value in experiment [1] is given as “significant increase in caveolae”. For the same substance, in the experiment on HMG-CoA reductase [2], the “HMG-CoA reductase cytoplasmic immunofluorescence in treated cells” value is “more intense cytoplasmic fluorescence”.
As to “Arg-Gly-Lys-Ser-NH2 (RGKS-NH2) [Peptide SEQ ID No. 5]”, the “Golgi complex development / production of lamellar bodies (Odland bodies) versus control cells” value in experiment [3] (0.5 ppm (1% of stock solution at 50 ppm), transmission electron microscopy) is recorded as “Golgi complex is substantially more developed than in the control cells”. The “lipid synthesis in normal human keratinocytes” value in experiment [3] (0.5 ppm, inferred from ultrastructural study) is “capable of inducing an increase in lipid synthesis”. For the same substance, in experiment [4], the expression of pankeratins entry was “increases the expression of pankeratins”. In addition, the “increase of cellular viability after UVB irradiation (MTT)” value in experiment [5] was determined as 16%. The “HMG-CoA reductase immunofluorescence in the upper layers of the epidermis, relative to untreated control” value with HMG-CoA reductase [6] was “stronger fluorescence”.
